Measured values published in patent US20260193293A1, “PEPTIDES CAPABLE OF INHIBITING PROTEIN-PROTEIN INTERACTIONS AT GABAB1A SUBUNIT AND USES THEREOF” (UNIVERSITY OF COPENHAGEN, priority 2022, published 2026).
Like-named read-outs stand apart in the source and are kept apart here. One block for each compound: values may come before it. Non-standard residues stand in square brackets, D forms with d. Residues, ends and D or L forms follow the SMILES beside them. NMeE = CN[C@@H](CCC(=O)O)C(=O)O; NMeV = CN[C@H](C(=O)O)C(C)C; NMeS = CN[C@@H](CO)C(=O)O

Target: Sushi domains (SD1/2) protein
Test: Fluorescence polarization (FP) competition assay with AJAP-1probe, calculated Ki
Format: binding
Procedure, shortened: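 Competition against 25 nM TAMRA-labelled peptide probe binding SD1/2, in PBS pH 7.4 with 1% BSA at rt, read at 530/580 nm. IC50 from sigmoidal dose-response fits, at least triplicate; Ki calculated from IC50 using probe Kd from saturation binding.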

[1] = Table 11, deep mutational scanning validation variants of AJAP-1WT, read-out: Ki (nM) mean ± SEM
[2] = Table 10, deep mutational scanning validation variants of APPWT, read-out: Ki (nM) mean ± SEM
[3] = CPP tagged peptides overview, SD1/2 binding affinity, mean ± SEM, n ≥ 3, read-out: Ki
[4] = Table 14, CPPs tagged peptides, read-out: Ki (nM) mean ± SEM
[5] = Table 9, Ala-, D-amino acids and N-methylation scans of PIANPWT, read-out: Ki (nM) mean ± SEM

Ki [1]: 39 ± 2 nM
Structure (SMILES): CC[C@H](C)[C@H](NC(=O)[C@H](Cc1ccccc1)NC(=O)[C@H](CCC(=O)O)NC(=O)[C@@H](NC(=O)[C@H](CCC(=O)O)NC(C)=O)[C@@H](C)O)C(=O)N[C@@H](C)C(=O)N[C@@H](Cc1c[nH]c2ccccc12)C(=O)NCC(=O)N1CCC[C@H]1C(=O)N[C@H](C(=O)NCC(=O)N[C@@H](CC(=O)O)C(=O)N[C@@H](CCC(=O)O)C(=O)N[C@@H](Cc1c[nH]cn1)C(N)=O)[C@@H](C)O

Ki [2]: 1520 ± 53 nM
Structure (SMILES): CC(=O)N[C@@H](CCCCN)C(=O)N[C@@H](CC(=O)O)C(=O)N[C@@H](CC(=O)O)C(=O)N[C@@H](CO)C(=O)N[C@@H](CC(=O)O)C(=O)N[C@H](C(=O)N[C@@H](Cc1c[nH]c2ccccc12)C(=O)N[C@@H](Cc1c[nH]c2ccccc12)C(=O)NCC(=O)NCC(=O)N[C@@H](C)C(=O)N[C@@H](CC(=O)O)C(=O)N[C@H](C(=O)N[C@@H](CC(=O)O)C(N)=O)[C@@H](C)O)C(C)C (Ac-KDDSDVWWGGADTD-NH2)

Ki [3]: 123 ± 4 nM
Ki [4]: 123 ± 4 nM
Structure (SMILES): CC[C@H](C)[C@H](NC(=O)[C@H](Cc1c[nH]c2ccccc12)NC(=O)[C@H](CC(=O)O)NC(=O)[C@H](CC(=O)O)NC(=O)[C@H](CC(=O)O)NC(=O)[C@H](CCC(=O)O)NC(C)=O)C(=O)N[C@@H](CC(=O)O)C(=O)N[C@@H](Cc1c[nH]c2ccccc12)C(=O)NCC(=O)N1CCC[C@H]1C(=O)N[C@H](C(=O)N[C@@H](CO)C(=O)N[C@@H](CC(=O)O)C(=O)N[C@@H](CC(=O)O)C(=O)N[C@@H](CC(=O)O)C(=O)N[C@@H](CCCNC(=N)N)C(=O)N[C@@H](CCCNC(=N)N)C(=O)N[C@@H](CCCNC(=N)N)C(=O)N[C@@H](CCCNC(=N)N)C(=O)N[C@@H](CCCNC(=N)N)C(=O)N[C@@H](CCCNC(=N)N)C(=O)N[C@@H](CCCNC(=N)N)C(=O)N[C@@H](CCCNC(=N)N)C(N)=O)[C@@H](C)O [Peptide 17-R8] (Ac-EDDDWIDWGPTSDDDRRRRRRRR-NH2)

Ki [5]: 523 ± 13 nM
Structure (SMILES): CC[C@H](C)[C@H](NC(=O)[C@H](C)NC(=O)[C@H](Cc1c[nH]c2ccccc12)NC(=O)[C@@H]1CCCN1C(C)=O)C(=O)N[C@H](C(=O)N[C@@H](Cc1c[nH]c2ccccc12)C(=O)NCC(=O)N1CCC[C@H]1C(=O)N[C@H](C(=O)N[C@H](C(=O)N[C@@H](CO)C(=O)N[C@@H](CCCNC(=N)N)C(=O)N(C)[C@@H](CCC(=O)O)C(=O)N[C@@H](CC(=O)O)C(N)=O)C(C)C)[C@@H](C)O)C(C)C (Ac-PWAIVWGPTVSR[NMeE]D-NH2)

Ki [5]: 7000 ± 100 nM
Structure (SMILES): CC[C@H](C)[C@H](NC(=O)[C@H](C)NC(=O)[C@H](Cc1c[nH]c2ccccc12)NC(=O)[C@@H]1CCCN1C(C)=O)C(=O)N(C)[C@H](C(=O)N[C@@H](Cc1c[nH]c2ccccc12)C(=O)NCC(=O)N1CCC[C@H]1C(=O)N[C@H](C(=O)N[C@H](C(=O)N[C@@H](CO)C(=O)N[C@@H](CCCNC(=N)N)C(=O)N[C@@H](CCC(=O)O)C(=O)N[C@@H](CC(=O)O)C(N)=O)C(C)C)[C@@H](C)O)C(C)C [PWAI(N-Me-V)WGPTVSRED] (Ac-PWAI[NMeV]WGPTVSRED-NH2)

Ki [5]: 1045 ± 1 nM
Structure (SMILES): CC[C@H](C)[C@H](NC(=O)[C@H](C)NC(=O)[C@H](Cc1c[nH]c2ccccc12)NC(=O)[C@@H]1CCCN1C(C)=O)C(=O)N[C@H](C(=O)N[C@@H](Cc1c[nH]c2ccccc12)C(=O)NCC(=O)N1CCC[C@H]1C(=O)N[C@H](C(=O)N[C@H](C(=O)N(C)[C@@H](CO)C(=O)N[C@@H](CCCNC(=N)N)C(=O)N[C@@H](CCC(=O)O)C(=O)N[C@@H](CC(=O)O)C(N)=O)C(C)C)[C@@H](C)O)C(C)C (Ac-PWAIVWGPTV[NMeS]RED-NH2)

Ki (Table 5, elongation and truncation scan of AJAP-1 binding epitope, read-out: Ki (nM) mean ± SEM): 26 ± 0.3 nM
Ki (purified peptides, read-out: Ki): 23 nM
Structure (SMILES): CC[C@H](C)[C@H](NC(=O)[C@H](Cc1ccccc1)NC(=O)[C@H](CCC(=O)O)NC(=O)[C@@H](NC(=O)[C@H](CCC(=O)O)NC(=O)[C@@H](NC(C)=O)[C@@H](C)O)[C@@H](C)O)C(=O)N[C@@H](C)C(=O)N[C@@H](Cc1c[nH]c2ccccc12)C(=O)NCC(=O)N1CCC[C@H]1C(=O)N[C@H](C(=O)NCC(=O)N[C@@H](CC(=O)O)C(=O)N[C@@H](CCC(=O)O)C(=O)N[C@@H](CC(=O)O)C(N)=O)[C@@H](C)O [Peptide 15, Ac-TETEFIAWGPTGDED-NH2] (Ac-TETEFIAWGPTGDED-NH2)

Ki (Table 1, affinity maturation, mean ± SEM, n ≥ 3, read-out: Ki): 354 ± 9 nM
Ki (Table 13, peptides for affinity maturation, read-out: Ki (nM) mean ± SEM): 345 ± 9 nM
Structure (SMILES): CC[C@H](C)[C@H](NC(=O)[C@H](Cc1ccccc1)NC(=O)[C@H](CCC(=O)O)NC(=O)[C@@H](NC(=O)[C@H](CCC(=O)O)NC(C)=O)[C@@H](C)O)C(=O)N[C@@H](C)C(=O)N[C@@H](Cc1c[nH]c2ccccc12)C(=O)NCC(=O)NCC(=O)N[C@@H](C)C(=O)N[C@@H](CC(=O)O)C(=O)N[C@H](C(=O)N[C@@H](CC(=O)O)C(N)=O)[C@@H](C)O [Peptide Y] (Ac-ETEFIAWGGADTD-NH2)

Ki (Table 4, truncation and elongation scans of APP epitope, read-out: Ki (nM) mean ± SEM): 247 ± 7 nM
Structure (SMILES): CC(=O)N[C@@H](CC(=O)O)C(=O)N[C@@H](C)C(=O)N[C@@H](CCC(=O)O)C(=O)N[C@@H](CCC(=O)O)C(=O)N[C@@H](CC(=O)O)C(=O)N[C@@H](CC(=O)O)C(=O)N[C@@H](CO)C(=O)N[C@@H](CC(=O)O)C(=O)N[C@H](C(=O)N[C@@H](Cc1c[nH]c2ccccc12)C(=O)N[C@@H](Cc1c[nH]c2ccccc12)C(=O)NCC(=O)NCC(=O)N[C@@H](C)C(=O)N[C@@H](CC(=O)O)C(=O)N[C@H](C(=O)N[C@@H](CC(=O)O)C(=O)N[C@@H](Cc1ccc(O)cc1)C(=O)N[C@@H](C)C(=O)N[C@@H](CC(=O)O)C(N)=O)[C@@H](C)O)C(C)C (Ac-DAEEDDSDVWWGGADTDYAD-NH2)

Ki [2]: 243 ± 3 nM
Structure (SMILES): CC[C@H](C)[C@H](NC(=O)[C@H](CO)NC(=O)[C@H](CC(=O)O)NC(=O)[C@H](CC(=O)O)NC(=O)[C@H](CCC(=O)O)NC(C)=O)C(=O)N[C@H](C(=O)N[C@@H](Cc1c[nH]c2ccccc12)C(=O)N[C@@H](Cc1c[nH]c2ccccc12)C(=O)NCC(=O)NCC(=O)N[C@@H](C)C(=O)N[C@@H](CC(=O)O)C(=O)N[C@H](C(=O)N[C@@H](CC(=O)O)C(N)=O)[C@@H](C)O)C(C)C (Ac-EDDSIVWWGGADTD-NH2)

Structure (SMILES): CC[C@H](C)[C@H](NC(=O)[C@H](Cc1c[nH]c2ccccc12)NC(=O)[C@H](CC(=O)O)NC(=O)[C@H](CC(=O)O)NC(=O)[C@H](CC(=O)O)NC(=O)[C@H](CCC(=O)O)NC(=O)[C@H](CCCNC(=N)N)NC(=O)[C@H](CCCNC(=N)N)NC(=O)[C@H](CCCNC(=N)N)NC(=O)[C@H](CCC(N)=O)NC(=O)[C@H](CCCNC(=N)N)NC(=O)[C@H](CCCNC(=N)N)NC(=O)[C@H](CCCCN)NC(=O)[C@H](CCCCN)NC(=O)[C@H](CCCNC(=N)N)NC(=O)CNC(=O)[C@H](Cc1ccc(O)cc1)NC(C)=O)C(=O)N[C@@H](CC(=O)O)C(=O)N[C@@H](Cc1c[nH]c2ccccc12)C(=O)N[C@@H](Cc1ccc(O)cc1)C(=O)N[C@@H](CC(=O)O)C(=O)N[C@@H](CO)C(=O)N[C@@H](CC(=O)O)C(=O)N[C@@H](CC(=O)O)C(=O)N[C@@H](CC(=O)O)C(N)=O [Tat-16] (Ac-YGRKKRRQRRREDDDWIDWYDSDDD-NH2)
Ki [3]: 83 ± 1 nM
Ki [4]: 83.4 ± 1 nM

Ki [1]: 32 ± 1 nM
Structure (SMILES): CC[C@H](C)[C@H](NC(=O)[C@H](Cc1ccccc1)NC(=O)[C@H](CCC(=O)O)NC(=O)[C@@H](NC(=O)[C@H](CCC(=O)O)NC(C)=O)[C@@H](C)O)C(=O)N[C@@H](C)C(=O)N[C@@H](Cc1c[nH]c2ccccc12)C(=O)NCC(=O)N1CCC[C@H]1C(=O)N[C@@H](CO)C(=O)NCC(=O)N[C@@H](CC(=O)O)C(=O)N[C@@H](CCC(=O)O)C(=O)N[C@@H](CC(=O)O)C(N)=O [ETEFIAWGPSGDED] (Ac-ETEFIAWGPSGDED-NH2)
